Test [1] relates to CD34+ cells from mobilized peripheral blood. Briefly: Long-term expansion of HSCs, mobilized peripheral blood (Example 36). The test is classed as cell-based, human. Conditions: Compound 1.010 8 μM, up to 21 days, from day 1. On the procedure: CD34+ cells from mobilized peripheral blood were purchased from STEMCELL Technologies. The blood from volunteer donors was mobilized using G-CSF. Volunteers were administered a maximum of 10 μg/kg/day of granulocyte colony-stimulating factor (G-CSF) for 3-5 days prior to collection. Primary human CD34+ cells were isolated from mobilized peripheral blood leukapheresis samples using positive immunomagnetic separation techniques.
Cryopreserved CD34+ cell samples from each source were thawed and gradually brought to room temperature. Samples were washed then placed in overnight culture in StemSpan with 100 ng/ml each of FLT3L, TPO, SCF, and TL-6.
Cultures were incubated at 3% oxygen (controlled by nitrogen) and 5% CO2.
Twenty-four hours later (day 1), cells were counted and immunophenotyped (flow cytometry on an Invitrogen Attune N×T cytometer). The media components and concentrations used for the compounds tested are described in Table 7. Culture conditions also included an antibiotic solution that includes penicillin, streptomycin, and amphotericin B to avoid contamination. Approximately 1000 cells were added to each of the cord blood and mobilized peripheral blood flasks (5 ml total volume) or wells of a 96-well plate (200 μl total volume). Approximately 2000 cells were added to each of the non-mobilized peripheral blood flasks (5 ml total volume) or wells of a 96-well plate (200 μl total volume). Exact cell numbers dispensed per condition were quantified for later calculations of fold change from day 1.
Wells were analyzed at days 7 and 10, flasks were analyzed at 14 and 21 days of incubation. Cell numbers and phenotypes were quantified with flow cytometry. At day 14, fresh conditions for flasks were prepared as on day 1, and cells were split 1:20 into the new flasks. An additional seven days later (day 21 of culture), cell numbers and phenotypes were again quantified with flow cytometry. Cell numbers calculated at day 21 account for the passaging of the cells.
Conditions in 96-well plates were prepared in quadruplicate; conditions in flasks were prepared in duplicate. On the above-indicated number of days in culture, cells from wells or flasks were collected and phenotypes were analyzed (flow cytometry on an Invitrogen Attune N×T cytometer).

In test [2] the test system is CD3+ and CD3+/CD8+ T cells. The test is described as follows: T-cell Maturation and CD8 Maturation Culture (Example 41). The test is classed as cell-based, human. As to the method:
Following 14 days in Lymphoid Progenitor Differentiation Cultures, cells were placed into T- and NK-cell Maturation Cultures.
For T-cell Maturation Cultures, 24-well non-TC-treated plates were coated with StemSpan Lymphoid Differentiation Coating Material (STEMCELL Technologies) according to the manufacturer's instructions. Immediately prior to initiation of T-cell Maturation Culture, wells were washed with PBS. Cells from L Diff Cultures were plated at 50,000 cells/well in 500 μl of T Cell Progenitor Maturation Medium, comprising StemSpan SFEM II medium with StemSpan T Cell Progenitor Maturation Supplement.
Following 4 days of culture, NK- and T-cell Maturation Cultures' medias were replenished by adding an equal volume of the same culture media added on day 14. At days 21 and 25 of NK- or T-cell Maturation Cultures, half-media changes were performed by removing half of the total volume of media without disturbing cells and adding media freshly prepared as on day 14.
Following 7 and 14 days in NK- and T-cell Maturation Culture (21 and 28 days from initiation of Lymphoid Differentiation Culture, respectively), cells were stained with antibodies to CD56, CD3, CD161, CD94, and CD16 and analyzed via flow cytometry to quantify T and NK lineage phenotypes.
T-cell Maturation Cultures were continued for an additional 14 days, plated at 50,000-75,000 cells/well into 24-well non-TC-treated plates freshly coated with Lymphoid Differentiation Coating Material as above. Cultures were continued for this 14 day-period with half-media changes every 3-4 days.
Following a total of 42 days in Lymphoid Progenitor Differentiation and T-cell Maturation cultures, T cells from 14-day+Formula I-expanded L Diff Culture and 14-day DMSO-expanded L Diff Culture were placed into CD8 Maturation Culture as follows: A 24-well plate was coated with Lymphocyte Differentiation Coating Medium as above. […] Following 6 days in this maturation medium, cells were analyzed for mature T cell phenotypes by staining for CD3, CD8a, CD4, CD56 and performing flow cytometry on an Attune N×T flow cytometer. […]

The mark [3] stands for this setting: CD8, Lymphoid Diff day 49, +Formula I-expanded CD34+ cells.

With `CC(C)(C)C(=O)Nc1ccc2c(c1)C(O)c1ccccc1-2` (centres unmarked) [Compound 1.010], in test [1], the “fold expansion of CD34+ cells” value is on record as “greater than 20 fold”, the “fold expansion of CD34+/CD133+ cells” value was “greater than 40 fold”, the “fold expansion of CD34+/CD133+/CD90+ cells” value is listed as “greater than 60 fold” and the “fold expansion of CD34+/CD133+/CD90+/CD38low/− cells” value is on record as “greater than 60 fold”. The “fold expansion of CD34+/CD133+/CD90+/CD45RA− cells” value in test [1] is given as “greater than 30 fold”. In addition, in test [2] (setting [3]), the “% Mature cells: CD4+/CD8α+ of Live/CD3+/CD56−” value was determined as 0.5% and the “% Mature cells: CD4−/CD8α+ of Live/CD3+/CD56−” value stood at 95%. In test [2] (CD34+ cells first expanded for 14 days in +Formula I conditions), the “CD8a+ cells, of CD3+ cells” value is recorded as 95%.
